These are literature values, as cited in patent US20100280071A1, “BENZIMIDAZOLES WHICH HAVE ACTIVITY AT M1 RECEPTOR AND THEIR USES IN MEDICINE” (priority 2006, published 2010).

Series [1] has as its system unilateral 6-OH-DA lesioned rats.
The next series has as its system c-fos expression. The note with it: prefrontal cortex, nucleus accumbens, striatum; rats.
For series [2] the following is noted: in vivo.
Series [3] deals with A10 and A9 dopamine cells. The note with it: A10 versus A9 cells.

Regarding `CCCCCCOc1nsnc1C1=CCCN(C)C1` [xanomeline], the “effect on dopamine agonist driven turning” value in series [1] is listed as “reverses”. Further, the c-fos expression entry with c-fos expression was “induces c-fos expression in prefrontal cortex and nucleus accumbens, but not in striatum”. In series [2], the conditioned avoidance entry is listed as “inhibit”. Moreover, in the series on monkeys, the EPS liability result is recorded as “without EPS liability” and the “effect on amphetamine-induced motor unrest” value is recorded as “reverses”. For the same molecule, the “psychotic symptoms such as suspiciousness, hallucinations and delusions” value in the series on Alzheimer's patients (Alzheimer's patients) was “reduce psychotic symptoms”. Moreover, in the series on Alzheimer's patients (attributed to relatively non-selective nature of the compound), the side effects entry was “dose-limiting peripheral cholinergic side effects”. In the series on rats, the “effect on amphetamine induced locomotion” value is recorded as “reverses”. In the series with mice, the “effect on apomorphine induced climbing” value was “reverses”. In series [3], the dopamine cell firing result was “inhibit A10, but not A9”.
